The supplement of paper PMC11451515

Legend:
Conditions in all cases: 48 h
[1] = test system: NOMO1; experiment: cell viability relative to DMSO control; higher = less cytotoxic
Method in brief: (§1)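 Three leukemia lines were tested: NOMO1 and SEM at 500 cells/well and P12-Ichikawa at 1000 cells/well. Each was adapted for at least four passages in each medium and seeded in 5 μl in 1536-well plates, and library compounds in DMSO were pin-dosed from 47 μM to 0.79 nM in 11 threefold steps. After 48 h at 37°C, CellTiter-Glo One luminescence was read. Viability is a percentage relative to DMSO wells on each plate, with cell-free wells as background.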

[2] = test system: P12-Ichikawa; experiment: as above
Method in brief: as §1

[3] = test system: SEM cells; experiment: as above
Method in brief: as §1

[4] = test system: NOMO1; experiment: AUC of viability dose-response curve (% viability x log10 dose units); higher = less sensitive
Method in brief: (§2)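 Leukemia cells adapted to each medium were seeded in 1536-well plates (500 or 1000 cells/well). They were dosed with library compounds in DMSO at 11 threefold doses, 47 μM to 0.79 nM, for 48 h at 37°C. CellTiter-Glo One luminescence was normalised per plate to DMSO and cell-free wells. Area under the curve was integrated by trapezoidal rule over log10 doses on a four-parameter log-logistic fit; curves exceeding full viability were scaled and curves failing quality control removed.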

[5] = test system: P12-Ichikawa; experiment: as above
Method in brief: as §2

[6] = test system: SEM cells; experiment: as above
Method in brief: as §2

CCc1nc(N)nc(N)c1-c1ccc(Cl)cc1
cell viability [%]
Conditions | [1] | [2] | [3]
HPLM + 10% dialyzed FBS, 0.000781 µM | 78.8 | 93.6 | 89
HPLM + 10% dialyzed FBS, 0.00234 µM | 118 | 97.3 | 95
HPLM + 10% dialyzed FBS, 0.00702 µM | 93.3 | 89.5 | 68.1
HPLM + 10% dialyzed FBS, 0.0211 µM | 92.8 | 98.6 | 108
HPLM + 10% dialyzed FBS, 0.0632 µM | 105 | 95.5 | 115
HPLM + 10% dialyzed FBS, 0.19 µM | 108 | 89.1 | 106
HPLM + 10% dialyzed FBS, 0.569 µM | 96.1 | 76.1 | 98.9
HPLM + 10% dialyzed FBS, 1.71 µM | 47.7 | 56.5 | 63
HPLM + 10% dialyzed FBS, 5.12 µM | 48 | 46.2 | 41
HPLM + 10% dialyzed FBS, 15.4 µM | 44.6 | 33.8 | 47.6
HPLM + 10% dialyzed FBS, 46.1 µM | 38.7 | 21.9 | 36.6
RPMI 5 mM glucose + 10% FBS, 0.000781 µM | 81.1 | 91.2 | 77
RPMI 5 mM glucose + 10% FBS, 0.00234 µM | 99.5 | 91.9 | 81.2
RPMI 5 mM glucose + 10% FBS, 0.00702 µM | 84.8 | 88.6 | 63.4
RPMI 5 mM glucose + 10% FBS, 0.0211 µM | 83.7 | 93.4 | 91.9
RPMI 5 mM glucose + 10% FBS, 0.0632 µM | 86.1 | 107 | 97.1
RPMI 5 mM glucose + 10% FBS, 0.19 µM | 86.4 | 97 | 99.3
RPMI 5 mM glucose + 10% FBS, 0.569 µM | 90.6 | 98.4 | 93
RPMI 5 mM glucose + 10% FBS, 1.71 µM | 90.5 | 90 | 87.3
RPMI 5 mM glucose + 10% FBS, 5.12 µM | 89.9 | 87.3 | 36
RPMI 5 mM glucose + 10% FBS, 15.4 µM | 89.1 | 68.4 | 93.9
RPMI 5 mM glucose + 10% FBS, 46.1 µM | 89.6 | 57.1 | 83.6
RPMI 5 mM glucose + 10% dialyzed FBS, 0.000781 µM | 84 | 82.2 | 77.4
RPMI 5 mM glucose + 10% dialyzed FBS, 0.00234 µM | 94.3 | 91.3 | 92.2
RPMI 5 mM glucose + 10% dialyzed FBS, 0.00702 µM | 90.3 | 89 | 70.5
RPMI 5 mM glucose + 10% dialyzed FBS, 0.0211 µM | 100 | 96.6 | 96.5
RPMI 5 mM glucose + 10% dialyzed FBS, 0.0632 µM | 106 | 95.3 | 98.4
RPMI 5 mM glucose + 10% dialyzed FBS, 0.19 µM | 104 | 90.1 | 92.4
RPMI 5 mM glucose + 10% dialyzed FBS, 0.569 µM | 96.8 | 84.3 | 95.3
RPMI 5 mM glucose + 10% dialyzed FBS, 1.71 µM | 104 | 85.2 | 101
RPMI 5 mM glucose + 10% dialyzed FBS, 5.12 µM | 90.2 | 86.5 | 48.6
RPMI 5 mM glucose + 10% dialyzed FBS, 15.4 µM | 56.3 | 48.3 | 85.9
RPMI 5 mM glucose + 10% dialyzed FBS, 46.1 µM | 35.3 | 24.4 | 46.6

AUC of viability dose-response curve
Conditions | [4] | [5] | [6]
HPLM + 10% dialyzed FBS | 381 | 352 | 381
RPMI 5 mM glucose + 10% FBS | 421 | 427 | 392
RPMI 5 mM glucose + 10% dialyzed FBS | 427 | 389 | 399

COC(=O)[C@H](Cc1ccccc1)NC(=O)[C@@H](N)CC(=O)O
cell viability [%]
Conditions | [1] | [2] | [3]
HPLM + 10% dialyzed FBS, 0.000781 µM | 110 | 112 | 128
HPLM + 10% dialyzed FBS, 0.00234 µM | 124 | 119 | 106
HPLM + 10% dialyzed FBS, 0.00702 µM | 116 | 120 | 111
HPLM + 10% dialyzed FBS, 0.0211 µM | 112 | 115 | 103
HPLM + 10% dialyzed FBS, 0.0632 µM | 128 | 119 | 130
HPLM + 10% dialyzed FBS, 0.19 µM | 115 | 108 | 110
HPLM + 10% dialyzed FBS, 0.569 µM | 113 | 112 | 126
HPLM + 10% dialyzed FBS, 1.71 µM | 112 | 112 | 119
HPLM + 10% dialyzed FBS, 5.12 µM | 93.6 | 106 | 103
HPLM + 10% dialyzed FBS, 15.4 µM | 96.1 | 101 | 120
HPLM + 10% dialyzed FBS, 46.1 µM | 94.9 | 100 | 116
RPMI 5 mM glucose + 10% FBS, 0.000781 µM | 108 | 110 | 125
RPMI 5 mM glucose + 10% FBS, 0.00234 µM | 121 | 110 | 98.5
RPMI 5 mM glucose + 10% FBS, 0.00702 µM | 125 | 113 | 121
RPMI 5 mM glucose + 10% FBS, 0.0211 µM | 122 | 119 | 112
RPMI 5 mM glucose + 10% FBS, 0.0632 µM | 110 | 115 | 122
RPMI 5 mM glucose + 10% FBS, 0.19 µM | 126 | 125 | 118
RPMI 5 mM glucose + 10% FBS, 0.569 µM | 115 | 107 | 128
RPMI 5 mM glucose + 10% FBS, 1.71 µM | 107 | 109 | 119
RPMI 5 mM glucose + 10% FBS, 5.12 µM | 112 | 102 | 100
RPMI 5 mM glucose + 10% FBS, 15.4 µM | 105 | 102 | 123
RPMI 5 mM glucose + 10% FBS, 46.1 µM | 108 | 108 | 116
RPMI 5 mM glucose + 10% dialyzed FBS, 0.000781 µM | 126 | 114 | 124
RPMI 5 mM glucose + 10% dialyzed FBS, 0.00234 µM | 117 | 109 | 106
RPMI 5 mM glucose + 10% dialyzed FBS, 0.00702 µM | 120 | 125 | 104
RPMI 5 mM glucose + 10% dialyzed FBS, 0.0211 µM | 112 | 112 | 107
RPMI 5 mM glucose + 10% dialyzed FBS, 0.0632 µM | 112 | 120 | 123
RPMI 5 mM glucose + 10% dialyzed FBS, 0.19 µM | 125 | 110 | 122
RPMI 5 mM glucose + 10% dialyzed FBS, 0.569 µM | 106 | 112 | 111
RPMI 5 mM glucose + 10% dialyzed FBS, 1.71 µM | 122 | 110 | 116
RPMI 5 mM glucose + 10% dialyzed FBS, 5.12 µM | 70.4 | 107 | 98.3
RPMI 5 mM glucose + 10% dialyzed FBS, 15.4 µM | 116 | 104 | 110
RPMI 5 mM glucose + 10% dialyzed FBS, 46.1 µM | 108 | 101 | 104

AUC of viability dose-response curve
Conditions | [4] | [5] | [6]
HPLM + 10% dialyzed FBS | 453 | 454 | 476
RPMI 5 mM glucose + 10% FBS | 461 | 459 | 472
RPMI 5 mM glucose + 10% dialyzed FBS | 437 | 458 | 467
